Values after ≈ are worked out from the molar mass of the structure shown. Read-outs that look alike come from different tables or passages of the source.
Columns and labels:
[1] = test system: H37RvMA; assay: Tuberculosis Alamar Blue/Resazurin assay (MIC); assay type: cell-based; conditions: Mycobacterium tuberculosis, H37RV, read-out: WT H37Rv MTB Activity
[2] = test system: E. coli; assay: Gram negative MIC protocol (OD600, LB, 24 h); conditions: Escherichia coli
Procedure: (§1) Overnight bacterial cultures were grown in LB with no added antibiotics at 37° C. with shaking. A 1:1000 dilution of these cultures into LB was exposed to concentration gradients of compounds in 96-well plates (100 μL per well assay volume). Resulting plates were incubated at 37° C. for 24 h without shaking, and OD600 was measured at the end of the incubation. MICs were determined as the lowest concentrations at which OD600 remained at baseline.

[3] = test system: A. baumannii; assay: Gram negative MIC protocol (OD600, LB, 24 h); conditions: Acinetobacter baumannii
Procedure: as §1

[4] = read-out: MIC E. coli delta-TolC LB Media, E. coli delta-TolC strain, LB media, 24 h, OD600
[5] = read-out: MIC WT E. coli LB Media, wild-type E. coli, LB media, 24 h, OD600
[6] = read-out: MIC A. baumannii LB Media, A. baumannii, LB media, 24 h, OD600

Row | SMILES | MIC ([1]; WT H37Rv MTB) [µM] | MIC [2, 4] [µM] | MIC [2, 5] [µM] | MIC [3, 6] [µM] | MIC [1] [µM] | MIC ([3]; read-out: MIC A. baumannii LB Media) [µM]
1 | CC(CC1CCCCC1)NCc1ccccc1OCc1ccccn1 (stereo not drawn) [B295] | 150 (≈ 50.8 µg/mL) | 4 (≈ 1.35 µg/mL) | > 150 | > 150 |  | 
2 | CC(CC1CCCCC1)NCc1ccccc1OCc1cccnc1 (stereo not drawn) [B296] | > 150 | 7 (≈ 2.37 µg/mL) | 91 (≈ 30.8 µg/mL) | > 150 |  | 
3 | CC(CC1CCCCC1)NCc1ccccc1OCC1CCCO1 (stereo not drawn) [B297] | > 150 | 7 (≈ 2.32 µg/mL) | > 150 | 150 (≈ 49.7 µg/mL) |  | 
4 | CCOC(COc1ccccc1CNC(C)CC1CCCCC1)OCC (stereo not drawn) [B298] | > 150 | 12 (≈ 4.36 µg/mL) | > 150 | > 150 |  | 
5 | CC(CC1CCCCC1)NCc1ccccc1OCCCS(C)(=O)=O (stereo not drawn) [B299] | > 150 | 4 (≈ 1.47 µg/mL) | 150 (≈ 55.1 µg/mL) | 150 (≈ 55.1 µg/mL) |  | 
6 | CC(CC1CCCCC1)NCc1ccccc1OCc1cn(C)nn1 (stereo not drawn) [B300] | > 150 | 12 (≈ 4.11 µg/mL) | > 150 | > 150 |  | 
7 | COCCOCCOc1ccccc1CNC(C)CC1CCCCC1 (stereo not drawn) [B301] | > 150 | 12 (≈ 4.19 µg/mL) | > 150 | > 150 |  | 
8 | CC(CC1CCCCC1)NCc1ccccc1OCc1cc(Br)no1 (stereo not drawn) [B302] | 55 (≈ 22.4 µg/mL) | < 1 | 150 (≈ 61.1 µg/mL) | 150 (≈ 61.1 µg/mL) |  | 
9 | COc1ccc(CNC(=O)COc2ccccc2CNC(C)CC2CCCCC2)cc1 (stereo not drawn) [B303] | 91 (≈ 38.6 µg/mL) | 7 (≈ 2.97 µg/mL) | > 150 | > 150 |  | 
10 | CC(CC1CCCCC1)NCc1ccccc1OCCCOCC(F)(F)F (stereo not drawn) [B304] | 91 (≈ 35.3 µg/mL) | 3 (≈ 1.16 µg/mL) | > 150 | > 150 |  | 
11 | CC(CC1CCCCC1)NCc1ccccc1OCCOCC(F)(F)F (stereo not drawn) [B305] | 150 (≈ 56 µg/mL) | 3 (≈ 1.12 µg/mL) | > 150 | 91 (≈ 34 µg/mL) |  | 
12 | Cc1noc(C)c1COc1ccccc1CNC(C)CC1CCCCC1 (stereo not drawn) [B306] | > 150 | 12 (≈ 4.28 µg/mL) | > 150 | > 150 |  | 
13 | CC(CC1CCCCC1)NCc1ccccc1OCCOC(C)(C)C (stereo not drawn) [B307] | 150 (≈ 52.1 µg/mL) | 20 (≈ 6.95 µg/mL) | > 150 | > 150 |  | 
14 | COCC(C)NC(=O)NC(=O)COc1ccccc1CNC(C)CC1CCCCC1 (stereo not drawn) [B308] | > 150 | 4 (≈ 1.68 µg/mL) | > 150 | 150 (≈ 62.9 µg/mL) |  | 
15 | CC(CC1CCCCC1)NCc1ccccc1OCC(=O)N1CCOCC1 (stereo not drawn) [B309] | > 150 | 33 (≈ 12.4 µg/mL) | > 150 | > 150 |  | 
16 | CC(CC1CCCCC1)NCc1ccccc1OCc1ncccn1 (stereo not drawn) [B310] | > 150 | 55 (≈ 18.7 µg/mL) | > 150 | > 150 |  | 
17 | CCOCOc1ccccc1CNC(C)CC1CCCCC1 (stereo not drawn) [B311] | > 150 | 7 (≈ 2.14 µg/mL) | > 150 | > 150 |  | 
18 | COCCCOc1ccccc1CNC(C)CC1CCCCC1 (stereo not drawn) [B312] | > 150 | 7 (≈ 2.24 µg/mL) | > 150 | > 150 |  | 
19 | CCOCCOc1ccccc1CNC(C)CC1CCCCC1 (stereo not drawn) [B313] | > 150 | 7 (≈ 2.24 µg/mL) | > 150 | > 150 |  | 
20 | CCSCCOc1ccccc1CNC(C)CC1CCCCC1 (stereo not drawn) [B314] | 150 (≈ 50.3 µg/mL) | 4 (≈ 1.34 µg/mL) | 150 (≈ 50.3 µg/mL) | 91 (≈ 30.5 µg/mL) |  | 
21 | CC(CC1CCCCC1)NCc1ccccc1OCCN(C)C (stereo not drawn) [B315] | > 150 | 150 (≈ 47.8 µg/mL) | 91 (≈ 29 µg/mL) | 150 (≈ 47.8 µg/mL) |  | 
22 | CC(CC1CCCCC1)NCc1ccccc1OCC(=O)N1CCOC(C)C1 (stereo not drawn) [B316] | > 150 | 7 (≈ 2.72 µg/mL) | > 150 | > 150 |  | 
23 | CC(CC1CCCCC1)NCc1ccccc1OCC(=O)NC(=O)NC1CCCC1 (stereo not drawn) [B317] | 55 (≈ 22.9 µg/mL) | 3 (≈ 1.25 µg/mL) | 91 (≈ 37.8 µg/mL) | 91 (≈ 37.8 µg/mL) |  | 
24 | CC(CC1CCCCC1)NCc1ccccc1OCC(=O)N(C)Cc1ccco1 (stereo not drawn) [B318] | 150 (≈ 59.8 µg/mL) | 7 (≈ 2.79 µg/mL) | > 150 | > 150 |  | 
25 | CC(CC1CCCCC1)NCc1ccccc1O (stereo not drawn) [B319] |  | 12 (≈ 2.97 µg/mL) | 33 (≈ 8.16 µg/mL) |  | 150 (≈ 37.1 µg/mL) | > 150
26 | CC(CC1CCCCC1)NCc1ccccc1OCC(=O)N(C)C (stereo not drawn) [B320] | > 150 | 20 (≈ 6.65 µg/mL) | > 150 | > 150 |  | 
27 | CC(CC1CCCCC1)NCc1ccccc1OC(F)(F)F (stereo not drawn) [B321] | > 150 | 55 (≈ 17.3 µg/mL) | > 150 | > 150 |  | 
28 | CC(CC1CCCCC1)NCc1ccccc1OCc1nnn(C)n1 (stereo not drawn) [B322] | > 150 | 4 (≈ 1.37 µg/mL) | 150 (≈ 51.5 µg/mL) | 150 (≈ 51.5 µg/mL) |  | 
29 | CC(CC1CCCCC1)NCc1ccccc1OCc1nc(C(C)C)no1 (stereo not drawn) [B323] | 150 (≈ 55.7 µg/mL) | 4 (≈ 1.49 µg/mL) | > 150 | > 150 |  | 
30 | CCc1noc(COc2ccccc2CNC(C)CC2CCCCC2)n1 (stereo not drawn) [B324] | > 150 | 7 (≈ 2.5 µg/mL) | > 150 | > 150 |  | 

— US11261201B2 (priority 2018, dated 2022)
